Data taken from patent publication US20260021061A1, “ARIADNE AND ANALOGS FOR THE TREATMENT OF NEUROLOGICAL AND NEUROMUSCLAR DISORDERS” (priority 2022, published 2026).
Where two headings read alike, the source gives them in different places.

How the values were obtained:
5-HT2B [1] = target: T1, 5-HT2B (Homo sapiens, UniProt P41595); test: IP1 agonism (IP1 formation assay), Cerep, Eurofins; assay type: cell-based; parameters: purchased Cerep, Eurofins (contract assay); details: duplicate averages only
T1 sequence (P41595 whole entry): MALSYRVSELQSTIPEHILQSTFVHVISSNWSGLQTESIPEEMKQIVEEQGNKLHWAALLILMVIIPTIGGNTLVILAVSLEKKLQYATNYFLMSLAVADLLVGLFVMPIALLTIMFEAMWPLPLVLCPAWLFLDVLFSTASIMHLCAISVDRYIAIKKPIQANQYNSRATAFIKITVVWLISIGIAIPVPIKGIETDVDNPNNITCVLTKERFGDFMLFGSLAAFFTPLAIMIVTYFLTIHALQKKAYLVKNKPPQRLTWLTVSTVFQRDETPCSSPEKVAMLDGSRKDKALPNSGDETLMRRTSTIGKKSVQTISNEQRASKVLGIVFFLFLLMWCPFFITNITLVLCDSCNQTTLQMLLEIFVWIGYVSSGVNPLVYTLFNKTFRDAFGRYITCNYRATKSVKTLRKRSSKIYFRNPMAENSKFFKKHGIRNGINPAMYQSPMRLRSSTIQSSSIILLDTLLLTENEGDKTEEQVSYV
Description: (§1) FIGS. 8A-B Comparison of 5-HT2A (a) and 5-HT2B (b) receptor in IP1 formation assay for selected compounds, performed at Cerep, Eurofins.
(§2) IP1 agonism summary for selected compounds (duplicate averages only), performed at Cerep, Eurofins.

5-HT2A [2] = target: T2, 5-HT2A (Homo sapiens, UniProt P28223); test: IP1 agonism (IP1 formation assay), Cerep, Eurofins; assay type: cell-based; parameters: purchased Cerep, Eurofins (contract assay); details: duplicate averages only
T2 sequence (P28223 whole entry): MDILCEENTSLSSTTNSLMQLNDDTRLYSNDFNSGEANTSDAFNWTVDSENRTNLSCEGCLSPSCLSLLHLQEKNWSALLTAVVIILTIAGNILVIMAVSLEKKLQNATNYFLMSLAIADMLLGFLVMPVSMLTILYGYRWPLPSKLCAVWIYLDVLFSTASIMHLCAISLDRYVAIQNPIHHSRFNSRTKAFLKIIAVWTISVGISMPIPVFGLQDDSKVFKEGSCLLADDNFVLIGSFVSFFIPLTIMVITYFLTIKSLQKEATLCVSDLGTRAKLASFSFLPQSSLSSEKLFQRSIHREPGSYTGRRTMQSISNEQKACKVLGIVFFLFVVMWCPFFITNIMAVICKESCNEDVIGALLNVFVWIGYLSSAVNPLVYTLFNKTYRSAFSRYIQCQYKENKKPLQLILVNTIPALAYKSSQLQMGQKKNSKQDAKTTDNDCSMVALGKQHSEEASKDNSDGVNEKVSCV
Description: as §1, §2

[3] = Pharmacokinetic assessment, plasma and brain; assay type: in vivo, male C57BL/6 mice; details: for Mean brain Concentration (ng/g): LLOQ 2.06 ng/mL for brain; for AUC(0-t): read-out: AUClast (hr*ng/mL), plasma
Procedure: PK assessments were performed at Sai Life (Telangana, India) according to the following general procedure. A total twenty-seven male C57BL/6 mice were used in this study with 3 mice per time point. Animals were administered subcutaneously at 10 mg/kg dose of test article. The formulation vehicle used was 0.9% normal saline. Blood samples (approximately 60 μL) were collected under light isoflurane anesthesia (Surgivet®) from retro orbital plexus from a set of three mice at 0.08, 0.25, 0.5, 1, 2, 4, 8, 24 and 48 hr. Immediately after blood collection, plasma was harvested by centrifugation at 4000 rpm, 10 min at […] and samples were stored at −70±10° C. until bioanalysis. Following blood collection, immediately animals were sacrificed followed by cutting abdominal vena-cava and whole body was perfused from heart using 10 mL of normal saline. Brain samples were collected from set of three mice at 0.08, 0.25, 0.5, 1, 2, 4, 8, 24 and 48 hr. After isolation, brain samples were rinsed three times in ice cold normal saline (for 5-10 seconds/rinse using ˜5-10 mL normal saline in disposable petri dish for each rinse) and dried on blotting paper. Brain samples were homogenized using ice-cold phosphate buffer saline (pH−7.4). Total homogenate volume was three times the tissue weight. All homogenates were stored below −70±10° C. until bioanalysis. All samples were processed for analysis by protein precipitation method and analyzed with fit-for-purpose LC-MS/MS method (LLOQ=5.16 ng/mL for plasma and 2.06 ng/mL for brain).

C57BL/6J mice = test: Head twitch response (HTR) in mice; assay type: in vivo, mouse; details: for HTR in presence of MDL100,907 (volinanserin), 5-HT2A antagonist: mouse, in vivo
Procedure: All samples were prepared the same day testing was performed. Solids were weighed into small vials and dissolved in USP grade 0.85% saline with addition of 2 molar equivalents of glacial acetic acid. Sonication and gentle heating were applied until complete dissolution. The compounds were subsequently filtered through 0.45 μm filters into a new glass vial. All compounds were administered at a 1 mg/kg subcutaneous dose at a volume of 10 mL/kg of body weight. Volinanserin hydrochloride salt (MDL 100907) was purchased from Toronto Research Chemicals.
All experimental procedures involving animals were approved by an Institutional Animal Care and Use Committee (IACUC) and adhered to principles described in the National Institutes of Health Guide for the Care and Use of Laboratory Animals. The studies were conducted at AAALAC accredited facilities. Animals received regular veterinary care (weekly by institutional veterinarians) including daily health monitoring (by experimenters) of the animals (observing home cage behaviors, nesting, and body weight). All procedures were designed to minimize any stress/distress. Healthy adult male mice C57BL/6J (8-12 weeks, 26-33 g) were purchased from the Jackson Laboratory (Bar Harbor, ME) and housed 5 mice per cage with food and water available ad libitum. Mice were maintained on a 12-h light/dark cycle (lights on 7:00-19:00) and all testing was done in the light cycle. Temperature was kept constant at 22±2° C., and relative humidity was maintained at 50±5%
The head-twitch response evaluation was performed by a trained observer who was blinded to both drug and dose. Mice were moved to the testing room 30 min before the experiment to allow for acclimation. The body weight of each mouse was recorded. Mice were administered either a 1, 3, 10, or 30 mg/kg s.c. dose of compound solution (volume of injection 260-330 μL based on body weight). […] The total number of head-twitches over the 15 minute period were recorded. Five mice were used per dose.
DOI was tested at the doses of 0.3, 1, 3, and 10 mg/kg (s.c., 5 mice per dose) and testing began immediately after administration of the compound. Ariadne was tested at the doses of 1, 3, 10, and 30 mg/kg (s.c., 5 mice per dose) and there was a 10 min interval between treatment and testing.

5-HT2A [4] = target: T2, 5-HT2A; test: G protein (Gq) dissociation BRET assay; assay type: cell-based; parameters: host or cells: HEK293T (ATCC CRL-11268)
5-HT4 receptor = 5-HT4 receptor (Homo sapiens, UniProt Q13639); test: 5-HTome G protein activation BRET assay; details: 5-HTome screen
Chain of 5-HT4 receptor (Q13639 whole entry): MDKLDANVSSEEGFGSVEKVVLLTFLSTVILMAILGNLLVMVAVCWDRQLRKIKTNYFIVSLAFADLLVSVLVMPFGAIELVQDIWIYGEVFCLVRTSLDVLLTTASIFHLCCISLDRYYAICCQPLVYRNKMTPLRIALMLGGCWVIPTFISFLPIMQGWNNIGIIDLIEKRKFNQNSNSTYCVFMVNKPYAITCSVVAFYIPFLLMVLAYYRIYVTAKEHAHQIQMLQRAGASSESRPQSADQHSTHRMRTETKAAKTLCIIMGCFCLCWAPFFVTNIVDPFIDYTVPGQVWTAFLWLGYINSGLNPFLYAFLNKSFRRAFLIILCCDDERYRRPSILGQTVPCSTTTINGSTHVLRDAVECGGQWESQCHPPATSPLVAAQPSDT
Procedure: (§3) All BRET assays were conducted using BRET2 in HEK293T cells (ATCC CRL-11268; mycoplasma-free), which were subcultured in high-glucose DMEM (VWR) supplemented with 10% FBS (Life Technologies).
Constructs in G protein-dissociation BRET assays were derived from the codon-optimized Tango pcDNA3.1 library (Addgene) with V2tail/TEV/tTA encoding regions deleted to yield “de-Tango” constructs. […] All Gα-Rluc8, Beta, and GFP2-γ constructs were derived from the TRUPATH pcDNA5/FRT/TO library (Addgene). […]
On the day of the assay, plates were decanted and 20 uL of drug buffer per well (1×HBSS, 20 mM HEPES, pH 7.4) was added using a Multidrop (ThermoFisher Scientific), and plates were allowed to equilibrate at 37° C. in a humidified incubator before receiving drug stimulation. […] Before reading, addition of coelenterazine 400a (5 uM final concentration; Nanolight Technology) was performed by the [sequence]. Immediately after, plates were read at 400 nm Rluc and fluorescent GFP2 emission at 510 nm for BRET2 at 0.8 second per well using a PheraStarFSX (BMB Lab Tech).
The BRET ratios of 510/400 luminescence were calculated per well and were plotted as a function of drug concentration using Graphpad Prism 5 or 9 (Graphpad Software Inc., San Diego, CA). […]

5-HT2B [5] = target: T1, 5-HT2B; test: G protein (Gq) dissociation BRET assay; details: for Emax: read-out: Emax, agonist activity
Procedure: as §3
(§4) Constructs in G protein-dissociation BRET assays were derived from the codon-optimized Tango pcDNA3.1 library (Addgene) with V2tail/TEV/tTA encoding regions deleted to yield “de-Tango” constructs. […] All Gα-Rluc8, Beta, and GFP2-γ constructs were derived from the TRUPATH pcDNA5/FRT/TO library (Addgene).
(§5) Approximately 48 hours before assays, cells were transfected using a reverse transfection method and plated in 1% dFBS at an approximate density of 15,000 cells per well into poly-L-lysine-coated 384-well white assay plates (Grenier Bio-One). For G protein-dissociation assays, cells were transfected in a 1:1:1:1 ratio of receptor: Gα-Rluc8: Beta: GFP2-γ constructs. […] All transfections were prepared in Opti-MEM (Invitrogen) and used a 3:1 ratio of TransIT-2020 (Mirus) uL:ug total DNA.
On the day of the assay, plates were decanted and 20 uL of drug buffer per well (1×HBSS, 20 mM HEPES, pH 7.4) was added using a Multidrop (ThermoFisher Scientific), and plates were allowed to equilibrate at 37° C. in a humidified incubator before receiving drug stimulation. Drug dilutions of all compounds were performed in McCorvy buffer (1×HBSS, 20 mM HEPES, pH 7.4, supplemented with 0.3% BSA fatty acid free (GoldBio), and 0.03% ascorbic acid). […] Next, plates were incubated at 37° C. in a humidified incubator for 60 minutes or specified time point. Before reading, addition of coelenterazine 400a (5 uM final concentration; Nanolight Technology) was performed by the [sequence]. Immediately after, plates were read at 400 nm Rluc and fluorescent GFP2 emission at 510 nm for BRET2 at 0.8 second per well using a PheraStarFSX (BMB Lab Tech).
(§6) The BRET ratios of 510/400 luminescence were calculated per well and were plotted as a function of drug concentration using Graphpad Prism 5 or 9 (Graphpad Software Inc., San Diego, CA). Data were normalized to % positive control stimulation and analyzed using nonlinear regression “log(agonist) vs. response” to yield Emax and EC50 parameter estimates.

5-HT5a receptor = 5-HT5a receptor (Homo sapiens, UniProt P47898); test: 5-HTome G protein activation BRET assay; details: for agonist activity: 5-HTome screen
Chain of 5-HT5a receptor (P47898 whole entry): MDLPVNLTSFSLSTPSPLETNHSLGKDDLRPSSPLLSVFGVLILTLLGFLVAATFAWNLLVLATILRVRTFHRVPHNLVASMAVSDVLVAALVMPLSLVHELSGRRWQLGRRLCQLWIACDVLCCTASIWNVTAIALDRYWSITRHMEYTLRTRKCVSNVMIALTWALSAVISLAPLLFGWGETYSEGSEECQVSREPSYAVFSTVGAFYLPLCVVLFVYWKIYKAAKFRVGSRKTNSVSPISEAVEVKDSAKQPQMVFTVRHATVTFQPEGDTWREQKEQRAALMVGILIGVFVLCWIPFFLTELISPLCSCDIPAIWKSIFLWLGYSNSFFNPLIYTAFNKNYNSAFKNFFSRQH
Procedure: as §3, §4, §5
On the day of the assay, plates were decanted and 20 uL of drug buffer per well (1×HBSS, 20 mM HEPES, pH 7.4) was added using a Multidrop (ThermoFisher Scientific), and plates were allowed to equilibrate at 37° C. in a humidified incubator before receiving drug stimulation. Drug dilutions of all compounds were performed in McCorvy buffer (1×HBSS, 20 mM HEPES, pH 7.4, supplemented with 0.3% BSA fatty acid free (GoldBio), and 0.03% ascorbic acid). […] Before reading, addition of coelenterazine 400a (5 uM final concentration; Nanolight Technology) was performed by the [sequence]. Immediately after, plates were read at 400 nm Rluc and fluorescent GFP2 emission at 510 nm for BRET2 at 0.8 second per well using a PheraStarFSX (BMB Lab Tech).
as §6

5-HT2A [6] = target: T2, 5-HT2A; test: Radioligand displacement assay; assay type: binding
Procedure: Therefore, an orthogonal assay measuring calcium flux was also performed for the 5-HT2 receptors (Klein et al., 2020).

[7] = EC50 (5-HT2B) (M), Table 7, IP1 agonism
[8] = EC50 (5-HT2A) (M), Table 7, IP1 agonism
[9] = SC 10 mg/kg, 24 hr, LLOQ 5.16 ng/mL
[10] = SC 10 mg/kg, 48 hr, LLOQ 5.16 ng/mL
[11] = male, C57BL/6, mouse, brain and plasma, SC 10 mg/kg, read-out: Brain/Plasma ratio
[12] = male, C57BL/6, mouse, brain, SC 10 mg/kg, read-out: Mean brain Concentration
[13] = male, C57BL/6, mouse, brain, SC 10 mg/kg, 8 hr, read-out: Mean brain Concentration
[14] = male, C57BL/6, mouse, plasma, SC 10 mg/kg, read-out: Mean plasma Concentration
[15] = male, C57BL/6, mouse, SC 10 mg/kg, brain, read-out: Cmax (ng/g), brain
[16] = male, C57BL/6, mouse, SC 10 mg/kg, brain, read-out: T1/2 (hr), brain (converted)
[17] = male, C57BL/6, mouse, SC 10 mg/kg, brain, read-out: Tmax (hr), brain
[18] = male, C57BL/6, mouse, SC 10 mg/kg, plasma
[19] = male, C57BL/6, mouse, SC 10 mg/kg, plasma, read-out: Cmax (ng/mL), plasma
[20] = male, C57BL/6, mouse, SC 10 mg/kg, plasma, read-out: T1/2 (hr), plasma (converted)
[21] = male, C57BL/6, mouse, SC 10 mg/kg, plasma, read-out: Tmax (hr), plasma
[22] = EC50, agonist activity, 5-HTome screen
[23] = 5-HTome screen, read-out: Emax, agonist activity
[24] = EC50 (EC50/Gq), Gq dissociation, Gq dissociation BRET

Structure (SMILES): CCC(N)Cc1cc(OC)c(C(F)(F)F)cc1OC (racemic) [Compound 29, 1-(2,5-dimethoxy-4-(trifluoromethyl)phenyl)butan-2-amine]
- EC50 (5-HT2B [1]; 5-HT2b (IP1 agonism), Table 2): 6.3e-07 M
- EC50 (5-HT2B [1]; [7]): 4e-07 M
- EC50 (5-HT2A [2]; 5-HT2a (IP1 agonism), Table 2): 5e-08 M
- EC50 (5-HT2A [2]; [8]): 6.3e-08 M
- Mean brain Concentration (ng/g) ([3]; SC 10 mg/kg, 24 hr): BLQ
- Mean plasma Concentration (ng/mL) [3, 9]: BLQ
- Mean brain Concentration (ng/g) ([3]; SC 10 mg/kg, 48 hr): BLQ
- Mean plasma Concentration (ng/mL) [3, 10]: BLQ
- Kp at 0.083 h [3, 11]: 4.66
- Kp at 0.25 h [3, 11]: 8.91
- Kp at 0.5 h [3, 11]: 8.93
- Kp at 1 h [3, 11]: 18.1
- Kp at 2 h [3, 11]: 18.2
- Kp at 4 h [3, 11]: 15.2
- Kp at 8 h ([3]; male, C57BL/6, mouse, brain and plasma, SC 10 mg/kg, 8 hr, read-out: Brain/Plasma ratio): 12.7
- concentration at 0.083 hr [3, 12]: 2010 ng/g
- concentration at 0.25 hr [3, 12]: 4160 ng/g
- concentration at 0.5 hr [3, 12]: 3770 ng/g
- concentration at 1 hr [3, 12]: 3900 ng/g
- concentration at 2 hr [3, 12]: 1740 ng/g
- concentration at 4 hr [3, 12]: 787 ng/g
- concentration at 8 hr [3, 13]: 170 ng/g
- concentration at 0.083 hr [3, 14]: 431 ng/mL
- concentration at 0.25 hr [3, 14]: 467 ng/mL
- concentration at 0.5 hr [3, 14]: 422 ng/mL
- concentration at 1 hr [3, 14]: 216 ng/mL
- concentration at 2 hr [3, 14]: 95.5 ng/mL
- concentration at 4 hr [3, 14]: 51.9 ng/mL
- concentration at 8 hr ([3]; male, C57BL/6, mouse, plasma, SC 10 mg/kg, 8 hr, LLOQ 5.16 ng/mL, read-out: Mean plasma Concentration): 13.4 ng/mL
- Cmax [3, 15]: 4160 ng/g
- half-life [3, 16]: 1.79 h
- Tmax [3, 17]: 0.25 h
- AUC(0-t) [3, 18]: 798 ng·h/mL
- Cmax [3, 19]: 467 ng/mL
- half-life [3, 20]: 2.11 h
- Tmax [3, 21]: 0.25 h
- HTR in presence of MDL100,907 (volinanserin), 5-HT2A antagonist (C57BL/6J mice): completely inhibited
- selectivity for 5-HT2A over 5-HT2B (5-HT2A [4]; by Gq dissociation signaling potency): 8 fold

Structure (SMILES): CCC(N)Cc1cc(OC)c(C)cc1OC (racemic) [Compound 32, 1-(2,5-dimethoxy-4-methylphenyl)butan-2-amine]
- agonist activity (5-HT4 receptor): Little to no agonist activity
- EC50 (5-HT2B [1]; 5-HT2b (IP1 agonism), Table 2): > 3.2e-05 M
- EC50 (5-HT2B [1]; [7]): 1.7e-06 M
- EC50 (5-HT2A [2]; 5-HT2a (IP1 agonism), Table 2): 1.3e-06 M
- EC50 (5-HT2A [2]; [8]): 1.8e-06 M
- Mean plasma Concentration (ng/mL) ([3]; SC 10 mg/kg, 8 hr, LLOQ 5.16 ng/mL): BLQ
- Mean brain Concentration (ng/g) ([3]; SC 10 mg/kg, 24 hr): BLQ
- Mean plasma Concentration (ng/mL) [3, 9]: BLQ
- Mean brain Concentration (ng/g) ([3]; SC 10 mg/kg, 48 hr): BLQ
- Mean plasma Concentration (ng/mL) [3, 10]: BLQ
- Kp at 0.083 h [3, 11]: 2.43
- Kp at 0.25 h [3, 11]: 5.93
- Kp at 0.5 h [3, 11]: 8.47
- Kp at 1 h [3, 11]: 10.2
- Kp at 2 h [3, 11]: 9.93
- Kp at 4 h [3, 11]: 9.01
- concentration at 0.083 hr [3, 12]: 1630 ng/g
- concentration at 0.25 hr [3, 12]: 4760 ng/g
- concentration at 0.5 hr [3, 12]: 5610 ng/g
- concentration at 1 hr [3, 12]: 5240 ng/g
- concentration at 2 hr [3, 12]: 1710 ng/g
- concentration at 4 hr [3, 12]: 368 ng/g
- concentration at 8 hr [3, 13]: 16.2 ng/g
- concentration at 0.083 hr [3, 14]: 672 ng/mL
- concentration at 0.25 hr [3, 14]: 802 ng/mL
- concentration at 0.5 hr [3, 14]: 662 ng/mL
- concentration at 1 hr [3, 14]: 512 ng/mL
- concentration at 2 hr [3, 14]: 172 ng/mL
- concentration at 4 hr [3, 14]: 40.9 ng/mL
- Cmax [3, 15]: 5610 ng/g
- half-life [3, 16]: 0.89 h
- Tmax [3, 17]: 0.5 h
- AUC(0-t) [3, 18]: 1180 ng·h/mL
- Cmax [3, 19]: 802 ng/mL
- half-life [3, 20]: 0.84 h
- Tmax [3, 21]: 0.25 h
- brain penetration ([3]; mouse, in vivo): high brain penetration
- EC50 (5-HT2B [5]; [22]): < 1000 nM
- Emax (5-HT2B [5]): > 70%
- EC50 (5-HT5a receptor): > 10000 nM
- agonist activity (5-HT5a receptor): Little to no agonist activity
- decrease in HTR count per 15 min compared to racemic DOPR (C57BL/6J mice; s.c.): > 3 fold
- dose of maximum (peak) HTR (C57BL/6J mice; s.c.): 10 mg/kg
- Ki (5-HT2A [6]): 120 nM
- Emax (5-HT2A [4]; [23]): > 70%
- EC50 (5-HT2A [4]; [24]): 185 nM
- EC50 (5-HT2A [4]; [22]): < 1000 nM
- signaling potency and efficacy in comparison to DOM (5-HT2A [4]; Gq, G11 and β-arrestin2 pathways coupled to 5-HT2A): lower signaling potency and efficacy

Structure (SMILES): CC[C@@H](N)Cc1cc(OC)c(C)cc1OC [(R)-Ariadne]
- agonist activity (5-HT4 receptor): Little to no agonist activity
- EC50 (5-HT2B [5]; EC50, Gq dissociation, Gq dissociation BRET): 739 nM
- EC50 (5-HT2B [5]; [22]): < 1000 nM
- Emax (5-HT2B [5]): > 70%
- agonist activity (5-HT5a receptor): Little to no agonist activity
- HTR in presence of MDL100,907 (volinanserin), 5-HT2A antagonist (C57BL/6J mice): completely inhibited
- dose of maximum (peak) HTR (C57BL/6J mice; s.c.): 10 mg/kg
- Ki (5-HT2A [6]): 53 nM
- Emax (5-HT2A [4]; [23]): > 70%
- EC50 (5-HT2A [4]; [24]): 149 nM
- EC50 (5-HT2A [4]; [22]): < 1000 nM
- Emax (5-HT2A [4]; Gq dissociation BRET, normalized to 5-HT, read-out: Emax (Emax/Gq) relative to 5-HT): 75%
